pEC50: −log10 of the molar value. Records with an inconclusive call do not appear. Activity calls are given as the source filed them. The rule behind the calls is not given here.
Tested on: H4 cells, PrP 5'UTR luciferase reporter translation
Assay: prion protein stem-loop luciferase translation blockers – luminescence, dose response (AID 1994)

Row | Compound | EC50 | pEC50
1 | C#CCOCCOCCOCCNc1nc(N2CCN(C(=O)CCCCCCCCCCNC(=O)[C@H](CO)n3cc(CCCSC)nn3)CC2)nc(N2CCN(C(=O)CCCCCCCCCCNC(=O)[C@H](CCCCN)n3cc(C[C@@H](C)CC)nn3)CC2)n1 | > 12000 nM (inactive) | –
2 | C=C(C=O)CC1CC(O)[C@]2(C)OC3CC4OC5C[C@]6(C)O[C@]7(C)CCC8OC9C[C@]%10(C)OC%11C(C)=CC(=O)OC%11CC%10OC9C[C@@H](C)C8OC7CC6O[C@]5(C)CC5OC5C4OC3CC2O1 (some centres not stated) | – | 5.80

From PubChem BioAssay AID1994 (Broad Institute, 2009)
